Values after ≈ are worked out from the molar mass of the structure shown.
Key:
Type in all cases: functional
Staphylococcus aureus [1] = experiment: Antibacterial activity against Staphylococcus aureus ATCC25923 incubated for 16 to 20 hrs by broth microdilution method; settings: time 16-20 hrs
Escherichia coli = experiment: Antibacterial activity against Escherichia coli ATCC25922 incubated for 16 to 20 hrs by broth microdilution method; settings: time 16-20 hrs
Enterococcus faecalis = experiment: Antibacterial activity against Enterococcus faecalis ATCC29212 incubated for 16 to 20 hrs by broth microdilution method; settings: time 16-20 hrs
[2] = tested on: Stenotrophomonas maltophilia; experiment: Antibacterial activity against Stenotrophomonas maltophilia ATCC17808 incubated for 16 to 20 hrs by broth microdilution method; settings: time 16-20 hrs
Staphylococcus aureus [3] = experiment: Antibacterial activity against Staphylococcus aureus ATCC25923 under 10^4 CFU/ml of bacterial inoculum culture by absorbance based assay
Staphylococcus aureus [4] = experiment: Antibacterial activity against Staphylococcus aureus ATCC25923 under 10^5 CFU/ml of bacterial inoculum culture by absorbance based assay
Staphylococcus aureus [5] = experiment: Antibacterial activity against Staphylococcus aureus ATCC25923 under 10^6 CFU/ml of bacterial inoculum culture by absorbance based assay
Staphylococcus aureus [6] = experiment: Antibacterial activity against Staphylococcus aureus ATCC25923 under 10^7 CFU/ml of bacterial inoculum culture by absorbance based assay

SMILES	MIC (Staphylococcus aureus [1]) [µg/mL]	MIC (Escherichia coli) [µg/mL]	MIC (Enterococcus faecalis) [µg/mL]	MIC [2] [µg/mL]	MIC (Staphylococcus aureus [3]) [µg/mL]	MIC (Staphylococcus aureus [4]) [µg/mL]	MIC (Staphylococcus aureus [5]) [µg/mL]	MIC (Staphylococcus aureus [6]) [µg/mL]
CC[C@H]1OC(=O)C[C@@H](O)[C@H](C)[C@@H](O[C@@H]2O[C@H](C)[C@@H](O)[C@H](N(C)C)[C@H]2O)[C@@H](CCN(C)Cc2cn(-c3cnc4ccccc4c3)nn2)C[C@@H](C)C(=O)/C=C/C(C)=C/[C@@H]1CNCc1ccc(Br)cc1	4 (≈ 4.04 µM)	8 (≈ 8.09 µM)	8 (≈ 8.09 µM)	8 (≈ 8.09 µM)				
CC[C@H]1OC(=O)C[C@@H](O)[C@H](C)[C@@H](O[C@@H]2O[C@H](C)[C@@H](O)[C@H](N(C)C)[C@H]2O)[C@@H](CCN(C)Cc2cn(-c3cnc4ccccc4c3)nn2)C[C@@H](C)C(=O)/C=C/C(C)=C/[C@@H]1CNCc1cccc(Br)c1	4 (≈ 4.04 µM)	8 (≈ 8.09 µM)	8 (≈ 8.09 µM)	8 (≈ 8.09 µM)				
C[C@@H](O)[C@H]1C(=O)N2C(C(=O)O)=C(S[C@@H]3CN[C@H](C(=O)N(C)C)C3)[C@H](C)[C@H]12 [MEROPENEM]	0.063 (≈ 0.164 µM)	0.125 (≈ 0.326 µM)	0.063 (≈ 0.164 µM)	0.125 (≈ 0.326 µM)	0.25 (≈ 0.652 µM)	0.5 (≈ 1.3 µM)	1 (≈ 2.61 µM)	2 (≈ 5.22 µM)
CC[C@H]1OC(=O)C[C@@H](O)[C@H](C)[C@@H](O[C@@H]2O[C@H](C)[C@@H](O)[C@H](N(C)C)[C@H]2O)[C@@H](CCN(C)Cc2cn(-c3cnc4ccccc4c3)nn2)C[C@@H](C)C(=O)/C=C/C(C)=C/[C@@H]1CNc1ccc2ccccc2c1	4 (≈ 4.23 µM)	8 (≈ 8.45 µM)	8 (≈ 8.45 µM)	4 (≈ 4.23 µM)				
CC[C@H]1OC(=O)C[C@@H](O)[C@H](C)[C@@H](O[C@@H]2O[C@H](C)[C@@H](O)[C@H](N(C)C)[C@H]2O)[C@@H](CCNCc2cn(-c3cnc4ccccc4c3)nn2)C[C@@H](C)C(=O)/C=C/C(C)=C/[C@@H]1CNc1ccc(C)cc1	2 (≈ 2.23 µM)	2 (≈ 2.23 µM)	2 (≈ 2.23 µM)	8 (≈ 8.93 µM)				

The next lines start with results.

MIC (Staphylococcus aureus [1]) [µg/mL]	MIC (Escherichia coli) [µg/mL]	MIC (Enterococcus faecalis) [µg/mL]	MIC [2] [µg/mL]	SMILES	MIC (Staphylococcus aureus [3]) [µg/mL]	MIC (Staphylococcus aureus [4]) [µg/mL]	MIC (Staphylococcus aureus [5]) [µg/mL]	MIC (Staphylococcus aureus [6]) [µg/mL]
2 (≈ 2.08 µM)	1 (≈ 1.04 µM)	2 (≈ 2.08 µM)	1 (≈ 1.04 µM)	CC[C@H]1OC(=O)C[C@@H](O)[C@H](C)[C@@H](O[C@@H]2O[C@H](C)[C@@H](O)[C@H](N(C)C)[C@H]2O)[C@@H](CCNCc2cn(-c3cnc4ccccc4c3)nn2)C[C@@H](C)C(=O)/C=C/C(C)=C/[C@@H]1CNc1ccc(Br)cc1				
2 (≈ 2.05 µM)	4 (≈ 4.1 µM)	4 (≈ 4.1 µM)	4 (≈ 4.1 µM)	CC[C@H]1OC(=O)C[C@@H](O)[C@H](C)[C@@H](O[C@@H]2O[C@H](C)[C@@H](O)[C@H](N(C)C)[C@H]2O)[C@@H](CCN(C)Cc2cn(-c3cnc4ccccc4c3)nn2)C[C@@H](C)C(=O)/C=C/C(C)=C/[C@@H]1CNc1ccc(Br)cc1				
2 (≈ 1.96 µM)	4 (≈ 3.91 µM)	8 (≈ 7.83 µM)	4 (≈ 3.91 µM)	CC[C@H]1OC(=O)C[C@@H](O)[C@H](C)[C@@H](O[C@@H]2O[C@H](C)[C@@H](O)[C@H](N(C)C)[C@H]2O)[C@@H](CCN(C)Cc2cn(-c3cnc4ccccc4c3)nn2)C[C@@H](C)C(=O)/C=C/C(C)=C/[C@@H]1CNc1ccc(I)cc1				
1 (≈ 1.07 µM)	2 (≈ 2.15 µM)	2 (≈ 2.15 µM)	1 (≈ 1.07 µM)	CC[C@H]1OC(=O)C[C@@H](O)[C@H](C)[C@@H](O[C@@H]2O[C@H](C)[C@@H](O)[C@H](N(C)C)[C@H]2O)[C@@H](CCNCc2cn(-c3cnc4ccccc4c3)nn2)C[C@@H](C)C(=O)/C=C/C(C)=C/[C@@H]1CNCc1ccc(Cl)cc1				
2 (≈ 2.14 µM)	2 (≈ 2.14 µM)	2 (≈ 2.14 µM)	4 (≈ 4.27 µM)	CC[C@H]1OC(=O)C[C@@H](O)[C@H](C)[C@@H](O[C@@H]2O[C@H](C)[C@@H](O)[C@H](N(C)C)[C@H]2O)[C@@H](CCN(C)Cc2cn(-c3cnc4ccccc4c3)nn2)C[C@@H](C)C(=O)/C=C/C(C)=C/[C@@H]1CN1CCCc2ccccc21				
1 (≈ 1.08 µM)	2 (≈ 2.16 µM)	4 (≈ 4.33 µM)	2 (≈ 2.16 µM)	CC[C@H]1OC(=O)C[C@@H](O)[C@H](C)[C@@H](O[C@@H]2O[C@H](C)[C@@H](O)[C@H](N(C)C)[C@H]2O)[C@@H](CCN(C)Cc2cn(-c3cnc4ccccc4c3)nn2)C[C@@H](C)C(=O)/C=C/C(C)=C/[C@@H]1CNCc1ccc(C)cc1				
1 (≈ 1.06 µM)	1 (≈ 1.06 µM)	1 (≈ 1.06 µM)	1 (≈ 1.06 µM)	CC[C@H]1OC(=O)C[C@@H](O)[C@H](C)[C@@H](O[C@@H]2O[C@H](C)[C@@H](O)[C@H](N(C)C)[C@H]2O)[C@@H](CCN(C)Cc2cn(-c3cnc4ccccc4c3)nn2)C[C@@H](C)C(=O)/C=C/C(C)=C/[C@@H]1CNCc1cc(F)cc(F)c1				
2 (≈ 2.12 µM)	1 (≈ 1.06 µM)	2 (≈ 2.12 µM)	4 (≈ 4.23 µM)	CC[C@H]1OC(=O)C[C@@H](O)[C@H](C)[C@@H](O[C@@H]2O[C@H](C)[C@@H](O)[C@H](N(C)C)[C@H]2O)[C@@H](CCN(C)Cc2cn(-c3cnc4ccccc4c3)nn2)C[C@@H](C)C(=O)/C=C/C(C)=C/[C@@H]1CNCc1ccc(Cl)cc1				
